Experimental data as given in US9006455B2 (Bristol-Myers Squibb Company, priority 2009, dated 2015).
Like-named read-outs stand apart in the source and are kept apart here.

Test system: HCV 1b genotype
Experiment: HCV Replicon assay (HCV 1b genotype)
Format: cell-based
Details: Hepatitis C virus, HCV 1b genotype replicon
Method in brief: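 Cell-based HCV genotype 1b replicon assay in HCV-neo replicon cells, including replicons carrying NS5A resistance substitutions; luciferase reporter read-outs also used.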

[1] = read-out: Range (EC50 values against HCV 1b)

Structure (SMILES): COC(=O)N[C@H](C(=O)N[C@@H](C)c1ncc(-c2ccc(-c3ccc4cc(-c5cnc([C@H](C)NC(=O)[C@@H](NC(=O)OC)C6CCOCC6)[nH]5)ccc4c3)cc2)[nH]1)C1CCOCC1 [Example 125, Methyl((1S)-2-(((1S)-1-(4-(4-(6-(2-((1S)-1-(((2S)-2-((methoxycarbonyl)amino)-2-(tetrahydro-2H-pyran-4-yl)acetyl)amino)ethyl)-1H-imidazol-4-yl)-2-naphthyl)phenyl)-1H-imidazol-2-yl)ethyl)amino)-2-oxo-1-(tetrahydro-2H-pyran-4-yl)ethyl)carbamate]
- EC50 (read-out: EC50): 0.136 nM
- EC50 [1]: 0.0101 to 1 nM

Structure (SMILES): COC(=O)N[C@H](C(=O)N(C)[C@@H](C)c1ncc(-c2ccc(-c3ccc4cc(-c5cnc([C@H](C)N(C)C(=O)[C@@H](NC(=O)OC)C(C)C)[nH]5)ccc4c3)cc2)[nH]1)C(C)C [Example 126, Methyl((1S)-1-(((1S)-1-(4-(4-(6-(2-((1S)-1-(((2S)-2-((methoxycarbonyl)amino)-3-methylbutanoyl)(methyl)amino)ethyl)-1H-imidazol-4-yl)-2-naphthyl)phenyl)-1H-imidazol-2-yl)ethyl)(methyl)carbamoyl)-2-methylpropyl)carbamate]
- EC50 (read-out: EC50): 0.654 nM
- EC50 [1]: 0.0101 to 1 nM

Structure (SMILES): COC(=O)N[C@H](C(=O)N1C[C@@H](C)C[C@H]1c1ncc(-c2ccc(-c3ccc4cc(-c5cnc([C@@H]6C[C@H](C)CN6C(=O)[C@@H](NC(=O)OC)C6CCOCC6)[nH]5)ccc4c3)cc2)[nH]1)C1CCOCC1 [Example 129, Methyl(2-((2S,4S)-2-(4-(4-(6-(2-((2S,4S)-1-(((methoxycarbonyl)amino)(tetrahydro-2H-pyran-4-yl)acetyl)-4-methyl-2-pyrrolidinyl)-1H-imidazol-4-yl)-2-naphthyl)phenyl)-1H-imidazol-2-yl)-4-methyl-1-pyrrolidinyl)-2-oxo-1-(tetrahydro-2H-pyran-4-yl)ethyl)carbamate]
- EC50 [1]: 0.0101 to 1 nM

Structure (SMILES): COC(=O)N[C@H](C(=O)N1[C@H](c2ncc(-c3ccc(-c4ccc5cc(-c6cnc([C@@H]7C[C@@H]8C[C@@H]8N7C(=O)[C@@H](NC(=O)OC)C(C)C)[nH]6)ccc5c4)cc3)[nH]2)C[C@@H]2C[C@@H]21)C(C)C [Example 135, Methyl((1S)-1-(((1S,3S,5S)-3-(4-(4-(6-(2-((1S,3S,5S)-2-((2S)-2-((methoxycarbonyl)amino)-3-methylbutanoyl)-2-azabicyclo[3.1.0]hex-3-yl)-1H-imidazol-4-yl)-2-naphthyl)phenyl)-1H-imidazol-2-yl)-2-azabicyclo[3.1.0]hex-2-yl)carbonyl)-2-methylpropyl)carbamate]
- EC50 [1]: 0.0101 to 1 nM

Structure (SMILES): CC(C)(C)OC(=O)N1CCC[C@H]1c1nc(-c2ccc3cc(-c4c[nH]c([C@@H]5CCCN5C(=O)OC(C)(C)C)n4)ccc3c2)c[nH]1 [Intermediate 52, (2S,2′S)-tert-Butyl 2,2′-(4,4′-(naphthalene-2,6-diyl)bis(1H-imidazole-4,2-diyl))dipyrrolidine-1-carboxylate]
- EC50 [1]: 1.01 to 1000 nM

Structure (SMILES): CC(C)(C)OC(=O)N1[C@@H]2C[C@@H]2C[C@H]1c1nc2ccc(-c3ccc4nc(-c5ccc6nc([C@@H]7C[C@H]8C[C@H]8N7C(=O)OC(C)(C)C)[nH]c6c5)ccc4c3)cc2[nH]1 [Intermediate 70, tert-Butyl(1R,3S,5R)-3-(5-(2-(2-((1R,3S,5R)-2-(tert-butoxycarbonyl)-2-azabicyclo[3.1.0]hex-3-yl)-1H-benzimidazol-6-yl)-6-quinolinyl)-1H-benzimidazol-2-yl)-2-azabicyclo[3.1.0]hexane-2-carboxylate]
- EC50 [1]: 1.01 to 1000 nM

Structure (SMILES): O=C(OCc1ccccc1)N1CCC[C@H]1c1nc2cc(-c3ccc4cc(-c5cnc6[nH]c([C@@H]7CCCN7C(=O)OCc7ccccc7)nc6c5)ccc4c3)cnc2[nH]1 [Intermediate 114, Benzyl(2S)-2-(6-(6-(2-((2S)-1-((benzyloxy)carbonyl)-2-pyrrolidinyl)-1H-imidazo[4,5-b]pyridin-6-yl)-2-naphthyl)-3H-imidazo[4,5-b]pyridin-2-yl)-1-pyrrolidinecarboxylate]
- EC50 [1]: 1.01 to 1000 nM
